From patent publication US11083725B2 (priority 2014, dated 2021)

Test system: NHBE cells
Assay: Biolog metabolic array: substrate use by NHBE cells with or without CA09 infection
Format: cell-based, human
Details: for Substrate use, 590 nm absorbance normalized to zero hour, 1 hr: Biolog PMM2, 1 hr; for Substrate use, 590 nm absorbance normalized to zero hour, 5 hr: Biolog PMM2, 5 hr; for Substrate use, 590 nm absorbance normalized to zero hour, 7 hr: Biolog PMM2, 7 hr
[1] = Control (uninfected) NHBE cells
[2] = Virus (CA09-infected, MOI 1) NHBE cells
[3] = Virus: CA09-infected NHBE cells, MOI 1, Biolog PMM2
[4] = Virus (CA09-infected NHBE cells, MOI 1)
[5] = Virus (CA09, MOI 1) infected NHBE cells

O=C(CO)[C@@H](O)[C@@H](O)[C@H](O)CO [D-Tagatose]
590 nm absorbance normalized to zero hour (substrate use), 1 hr [1]: 1.07 | 590 nm absorbance normalized to zero hour (substrate use), 2 hr [1]: 1.01 | 590 nm absorbance normalized to zero hour (substrate use), 3 hr [1]: 0.88 | 590 nm absorbance normalized to zero hour (substrate use), 4 hr [1]: 0.28 | 590 nm absorbance normalized to zero hour (substrate use), 6 hr [1]: 0.49 | 590 nm absorbance normalized to zero hour (substrate use), 8 hr [1]: 0.34 | 590 nm absorbance normalized to zero hour (substrate use), 9 hr [1]: 0.36 | 590 nm absorbance normalized to zero hour (substrate use), 10 hr [1]: 0.37 | 590 nm absorbance normalized to zero hour (substrate use), 11 hr [1]: 0.39 | Substrate use, 590 nm absorbance normalized to zero hour, 1 hr [1]: 1.07 | Substrate use, 590 nm absorbance normalized to zero hour, 5 hr [1]: 0.29 | Substrate use, 590 nm absorbance normalized to zero hour, 7 hr [1]: 0.32 | 590 nm absorbance normalized to zero hour (substrate use), 1 hr [2]: 0.17 | 590 nm absorbance normalized to zero hour (substrate use), 2 hr [2]: 0.24 | 590 nm absorbance normalized to zero hour (substrate use), 3 hr [2]: 0.28 | 590 nm absorbance normalized to zero hour (substrate use), 4 hr [2]: 0.30 | 590 nm absorbance normalized to zero hour (substrate use), 5 hr [2]: 0.36 | 590 nm absorbance normalized to zero hour (substrate use), 6 hr [2]: 0.39 | 590 nm absorbance normalized to zero hour (substrate use), 7 hr [2]: 0.42 | 590 nm absorbance normalized to zero hour (substrate use), 8 hr [2]: 0.44 | 590 nm absorbance normalized to zero hour (substrate use), 9 hr [2]: 0.49 | 590 nm absorbance normalized to zero hour (substrate use), 10 hr [2]: 0.51 | 590 nm absorbance normalized to zero hour (substrate use), 1 hr [3]: 0.17 | 590 nm absorbance normalized to zero hour (substrate use), 2 hr [3]: 0.24 | 590 nm absorbance normalized to zero hour (substrate use), 3 hr [3]: 0.28 | 590 nm absorbance normalized to zero hour (substrate use), 4 hr [3]: 0.30 | 590 nm absorbance normalized to zero hour (substrate use), 5 hr [3]: 0.36 | 590 nm absorbance normalized to zero hour (substrate use), 6 hr [3]: 0.39 | 590 nm absorbance normalized to zero hour (substrate use), 7 hr [3]: 0.42 | 590 nm absorbance normalized to zero hour (substrate use), 8 hr [3]: 0.44 | 590 nm absorbance normalized to zero hour (substrate use), 9 hr [3]: 0.49 | 590 nm absorbance normalized to zero hour (substrate use), 10 hr [3]: 0.51 | 590 nm absorbance normalized to zero hour (substrate use), 11 hr [3]: 0.48

OC[C@H]1O[C@H](O[C@H]2O[C@H](CO)[C@@H](O)[C@H](O)[C@H]2O)[C@H](O)[C@@H](O)[C@@H]1O [D-Trehalose]
590 nm absorbance normalized to zero hour (substrate use), 0 hr [1]: 1.00 | 590 nm absorbance normalized to zero hour (substrate use), 1 hr [1]: 1.68 | 590 nm absorbance normalized to zero hour (substrate use), 2 hr [1]: 2.24 | 590 nm absorbance normalized to zero hour (substrate use), 3 hr [1]: 2.70 | 590 nm absorbance normalized to zero hour (substrate use), 4 hr [1]: 2.88 | 590 nm absorbance normalized to zero hour (substrate use), 6 hr [1]: 3.69 | 590 nm absorbance normalized to zero hour (substrate use), 8 hr [1]: 4.74 | 590 nm absorbance normalized to zero hour (substrate use), 9 hr [1]: 5.11 | 590 nm absorbance normalized to zero hour (substrate use), 10 hr [1]: 4.09 | 590 nm absorbance normalized to zero hour (substrate use), 11 hr [1]: 4.60 | Substrate use, 590 nm absorbance normalized to zero hour, 0 hr (Control (uninfected) NHBE cells, Biolog PMM2, 0 hr): 1.00 | Substrate use, 590 nm absorbance normalized to zero hour, 1 hr [1]: 1.68 | Substrate use, 590 nm absorbance normalized to zero hour, 5 hr [1]: 3.48 | Substrate use, 590 nm absorbance normalized to zero hour, 7 hr [1]: 4.20 | 590 nm absorbance normalized to zero hour (substrate use), 0 hr [2]: 1.00 | 590 nm absorbance normalized to zero hour (substrate use), 1 hr [2]: 1.66 | 590 nm absorbance normalized to zero hour (substrate use), 2 hr [2]: 2.04 | 590 nm absorbance normalized to zero hour (substrate use), 3 hr [2]: 2.20 | 590 nm absorbance normalized to zero hour (substrate use), 4 hr [2]: 2.27 | 590 nm absorbance normalized to zero hour (substrate use), 5 hr [2]: 2.52 | 590 nm absorbance normalized to zero hour (substrate use), 6 hr [2]: 2.66 | 590 nm absorbance normalized to zero hour (substrate use), 7 hr [2]: 2.79 | 590 nm absorbance normalized to zero hour (substrate use), 8 hr [2]: 2.93 | 590 nm absorbance normalized to zero hour (substrate use), 9 hr [2]: 3.11 | 590 nm absorbance normalized to zero hour (substrate use), 10 hr [2]: 3.25 | 590 nm absorbance normalized to zero hour (substrate use), 11 hr [2]: 3.07 | 590 nm absorbance normalized to zero hour (substrate use), 0 hr [3]: 1.00 | 590 nm absorbance normalized to zero hour (substrate use), 1 hr [3]: 1.66 | 590 nm absorbance normalized to zero hour (substrate use), 2 hr [3]: 2.04 | 590 nm absorbance normalized to zero hour (substrate use), 3 hr [3]: 2.20 | 590 nm absorbance normalized to zero hour (substrate use), 4 hr [3]: 2.27 | 590 nm absorbance normalized to zero hour (substrate use), 5 hr [3]: 2.52 | 590 nm absorbance normalized to zero hour (substrate use), 6 hr [3]: 2.66 | 590 nm absorbance normalized to zero hour (substrate use), 7 hr [3]: 2.79 | 590 nm absorbance normalized to zero hour (substrate use), 8 hr [3]: 2.93 | 590 nm absorbance normalized to zero hour (substrate use), 9 hr [3]: 3.11 | 590 nm absorbance normalized to zero hour (substrate use), 10 hr [3]: 3.25 | 590 nm absorbance normalized to zero hour (substrate use), 11 hr [3]: 3.07

OC[C@H]1O[C@@H](OC[C@H]2OC(O)[C@H](O)[C@@H](O)[C@@H]2O)[C@H](O)[C@@H](O)[C@@H]1O (stereo partly shown) [Gentio-biose]
590 nm absorbance normalized to zero hour (substrate use), 1 hr [1]: 1.71 | 590 nm absorbance normalized to zero hour (substrate use), 2 hr [1]: 2.34 | 590 nm absorbance normalized to zero hour (substrate use), 3 hr [1]: 2.83 | 590 nm absorbance normalized to zero hour (substrate use), 4 hr [1]: 3.01 | 590 nm absorbance normalized to zero hour (substrate use), 6 hr [1]: 4.46 | 590 nm absorbance normalized to zero hour (substrate use), 8 hr [1]: 4.57 | 590 nm absorbance normalized to zero hour (substrate use), 9 hr [1]: 5.20 | 590 nm absorbance normalized to zero hour (substrate use), 10 hr [1]: 5.59 | 590 nm absorbance normalized to zero hour (substrate use), 11 hr [1]: 5.94 | Substrate use, 590 nm absorbance normalized to zero hour, 1 hr [1]: 1.71 | Substrate use, 590 nm absorbance normalized to zero hour, 5 hr [1]: 3.72 | Substrate use, 590 nm absorbance normalized to zero hour, 7 hr [1]: 4.35 | 590 nm absorbance normalized to zero hour (substrate use), 1 hr [4]: 1.23 | 590 nm absorbance normalized to zero hour (substrate use), 2 hr [4]: 1.38 | 590 nm absorbance normalized to zero hour (substrate use), 3 hr [4]: 1.44 | 590 nm absorbance normalized to zero hour (substrate use), 4 hr [4]: 1.47 | 590 nm absorbance normalized to zero hour (substrate use), 5 hr [4]: 1.55 | 590 nm absorbance normalized to zero hour (substrate use), 6 hr [4]: 1.62 | 590 nm absorbance normalized to zero hour (substrate use), 7 hr [4]: 1.66 | 590 nm absorbance normalized to zero hour (substrate use), 8 hr [4]: 1.72 | 590 nm absorbance normalized to zero hour (substrate use), 9 hr [4]: 1.79 | 590 nm absorbance normalized to zero hour (substrate use), 10 hr [4]: 1.85 | 590 nm absorbance normalized to zero hour (substrate use), 11 hr [4]: 1.99 | 590 nm absorbance normalized to zero hour (substrate use), 1 hr [3]: 1.23 | 590 nm absorbance normalized to zero hour (substrate use), 2 hr [3]: 1.38 | 590 nm absorbance normalized to zero hour (substrate use), 3 hr [3]: 1.44 | 590 nm absorbance normalized to zero hour (substrate use), 4 hr [3]: 1.47 | 590 nm absorbance normalized to zero hour (substrate use), 5 hr [3]: 1.55 | 590 nm absorbance normalized to zero hour (substrate use), 6 hr [3]: 1.62 | 590 nm absorbance normalized to zero hour (substrate use), 7 hr [3]: 1.66 | 590 nm absorbance normalized to zero hour (substrate use), 8 hr [3]: 1.72 | 590 nm absorbance normalized to zero hour (substrate use), 9 hr [3]: 1.79 | 590 nm absorbance normalized to zero hour (substrate use), 10 hr [3]: 1.85 | 590 nm absorbance normalized to zero hour (substrate use), 11 hr [3]: 1.99

OCC(O)CO [Glycerol]
590 nm absorbance normalized to zero hour (substrate use), 1 hr [1]: 1.36 | 590 nm absorbance normalized to zero hour (substrate use), 2 hr [1]: 1.42 | 590 nm absorbance normalized to zero hour (substrate use), 3 hr [1]: 1.19 | 590 nm absorbance normalized to zero hour (substrate use), 4 hr [1]: 1.18 | 590 nm absorbance normalized to zero hour (substrate use), 6 hr [1]: 0.68 | 590 nm absorbance normalized to zero hour (substrate use), 8 hr [1]: 1.04 | 590 nm absorbance normalized to zero hour (substrate use), 9 hr [1]: 1.08 | 590 nm absorbance normalized to zero hour (substrate use), 10 hr [1]: 1.04 | 590 nm absorbance normalized to zero hour (substrate use), 11 hr [1]: 1.08 | Substrate use, 590 nm absorbance normalized to zero hour, 1 hr [1]: 1.36 | Substrate use, 590 nm absorbance normalized to zero hour, 5 hr [1]: 1.27 | Substrate use, 590 nm absorbance normalized to zero hour, 7 hr [1]: 1.06 | Substrate use, 590 nm absorbance normalized to zero hour, 11 hr (Control (uninfected) NHBE cells, Biolog PMM2, 11 hr): 1.04 | Substrate use, 590 nm absorbance normalized to zero hour, 1 hr [5]: 1.04 | Substrate use, 590 nm absorbance normalized to zero hour, 2 hr (Virus (CA09, MOI 1) infected NHBE cells, Biolog PMM2, 2 hr): 1.04 | Substrate use, 590 nm absorbance normalized to zero hour, 3 hr (Virus (CA09, MOI 1) infected NHBE cells, Biolog PMM2, 3 hr): 1.04 | Substrate use, 590 nm absorbance normalized to zero hour, 4 hr (Virus (CA09, MOI 1) infected NHBE cells, Biolog PMM2, 4 hr): 1.04 | Substrate use, 590 nm absorbance normalized to zero hour, 5 hr [5]: 3.55 | Substrate use, 590 nm absorbance normalized to zero hour, 7 hr [5]: 3.91 | 590 nm absorbance normalized to zero hour (substrate use), 1 hr [2]: 2.05 | 590 nm absorbance normalized to zero hour (substrate use), 2 hr [2]: 2.67 | 590 nm absorbance normalized to zero hour (substrate use), 3 hr [2]: 3.09 | 590 nm absorbance normalized to zero hour (substrate use), 4 hr [2]: 3.24 | 590 nm absorbance normalized to zero hour (substrate use), 6 hr [2]: 3.71 | 590 nm absorbance normalized to zero hour (substrate use), 8 hr [2]: 4.11 | 590 nm absorbance normalized to zero hour (substrate use), 9 hr [2]: 4.51 | 590 nm absorbance normalized to zero hour (substrate use), 10 hr [2]: 4.63 | 590 nm absorbance normalized to zero hour (substrate use), 11 hr [2]: 5.09
